The test system of experiment [1] is Tryptase beta-1 (Homo sapiens), Q15661 [A190S]. In words: Inhibition of human recombinant beta-tryptase A190S mutant using chromogenic substrate S-2366.
The nature of experiment [2]: Inhibition of human recombinant beta-tryptase using chromogenic substrate S-2366.
The species entered for experiment [3] is Homo sapiens. In words: Inhibition of human recombinant beta-tryptase using chromogenic substrate S-2366 at 30 uM.

Structures are written as SMILES. The source made the active and inactive calls. No cut-off for these calls is given here.

Chain of Tryptase beta-1 (Homo sapiens), Q15661 [A190S] (Q15661 whole entry A190S): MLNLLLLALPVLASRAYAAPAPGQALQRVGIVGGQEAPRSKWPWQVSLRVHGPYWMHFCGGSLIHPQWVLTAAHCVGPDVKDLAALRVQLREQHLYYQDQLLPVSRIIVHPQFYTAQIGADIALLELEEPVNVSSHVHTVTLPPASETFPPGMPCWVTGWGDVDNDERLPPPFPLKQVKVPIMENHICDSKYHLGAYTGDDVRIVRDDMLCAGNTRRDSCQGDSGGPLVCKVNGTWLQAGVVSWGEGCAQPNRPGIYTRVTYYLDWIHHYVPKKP

In the case of `Nc1ncnc2cc(CN3CCN(Cc4cc(-c5ccc(Cl)s5)on4)CC3=O)ccc12`, the inhibition result in experiment [1] was “inactive”.
Turning to `NCc1cccc(C2CCN(C(=O)c3cccc(-c4ccc5c(c4)NC(c4c[nH]c6cc(-c7cccc(C(=O)N8CCC(c9cccc(CN)c9)CC8)c7)ccc46)C5)c3)CC2)c1` (stereo not drawn), the Ki – broadly, a dissociation constant, usually derived from enzyme kinetics or from competition with a known ligand – in experiment [2] was 3 nM.
For the compound `NCc1cccc(C2CCN(C(=O)c3cccc(C#CC#Cc4cccc(C(=O)N5CCC(c6cccc(CN)c6)CC5)c4)c3)CC2)c1`, in experiment [2], the Ki is 0.34 nM.
As for `NCc1cccc(C2CCN(C(=O)c3ccccc3)CC2)c1`, the Ki in experiment [2] was determined as 1900 nM.
On to `NCc1cccc(C2CCN(C(=O)c3cccc(CCCCc4cccc(C(=O)N5CCC(c6cccc(CN)c6)CC5)c4)c3)CC2)c1`, for which, in experiment [2], the Ki stood at 2 nM.
Turning to `N=C(N)c1cccc(C2CCN(C(=O)c3cccc(C#CC#Cc4cccc(C(=O)N5CCC(c6cccc(C(=N)N)c6)CC5)c4)c3)CC2)c1`, the Ki in experiment [2] is 0.29 nM.
In the case of `O=C1CN(Cc2cc(-c3ccc(Cl)s3)on2)CCN1CCCCCCCCCCN1CCN(Cc2cc(-c3ccc(Cl)s3)on2)CC1=O`, the inhibition entry in experiment [3] was “inactive”.
Turning to `N=C(N)c1cccc(C2CCN(C(=O)c3cccc(CCCCc4cccc(C(=O)N5CCC(c6cccc(C(=N)N)c6)CC5)c4)c3)CC2)c1`, in experiment [2], the Ki is 0.3 nM.

Source of the values: ChEMBL document CHEMBL2021825, “Dimerization of β-tryptase inhibitors, does it work for both basic and neutral P1 groups?” (Bioorg Med Chem Lett, 2012).
